Read-outs that look alike come from different tables or passages of the source.
Target: T1, Androgen Receptor (Homo sapiens, UniProt P10275)
T1 construct: endogenous in cells; host or cells: VCaP cells
T1 sequence (P10275 1-920): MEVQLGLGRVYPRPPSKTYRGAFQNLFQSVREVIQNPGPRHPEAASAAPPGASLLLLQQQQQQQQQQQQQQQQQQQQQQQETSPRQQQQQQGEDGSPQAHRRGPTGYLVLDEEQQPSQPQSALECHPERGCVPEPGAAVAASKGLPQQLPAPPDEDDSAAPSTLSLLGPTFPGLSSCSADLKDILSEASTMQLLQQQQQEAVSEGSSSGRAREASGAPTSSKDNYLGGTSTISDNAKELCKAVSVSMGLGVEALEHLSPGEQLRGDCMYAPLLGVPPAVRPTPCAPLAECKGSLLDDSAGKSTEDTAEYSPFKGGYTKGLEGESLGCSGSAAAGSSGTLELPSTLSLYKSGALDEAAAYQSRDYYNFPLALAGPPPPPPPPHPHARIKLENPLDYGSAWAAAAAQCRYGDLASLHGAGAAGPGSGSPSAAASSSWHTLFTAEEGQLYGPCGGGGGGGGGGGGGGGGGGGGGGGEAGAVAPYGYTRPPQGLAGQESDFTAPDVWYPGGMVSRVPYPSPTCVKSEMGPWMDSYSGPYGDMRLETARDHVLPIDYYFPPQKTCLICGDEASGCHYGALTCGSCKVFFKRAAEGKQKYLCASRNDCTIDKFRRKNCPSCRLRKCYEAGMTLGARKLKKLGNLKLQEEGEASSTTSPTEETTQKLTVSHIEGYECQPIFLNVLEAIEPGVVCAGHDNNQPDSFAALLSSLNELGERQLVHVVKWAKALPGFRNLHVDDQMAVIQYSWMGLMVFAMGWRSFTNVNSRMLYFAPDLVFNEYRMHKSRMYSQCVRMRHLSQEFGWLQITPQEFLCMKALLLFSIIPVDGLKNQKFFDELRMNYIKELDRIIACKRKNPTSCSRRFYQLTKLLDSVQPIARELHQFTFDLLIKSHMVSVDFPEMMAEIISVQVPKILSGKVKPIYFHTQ
Test: Androgen Receptor ELISA assay (PathScan AR ELISA) in VCaP cells: AR degradation, Dmax and DC50
Assay type: cell-based
In short: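 VCaP cells in phenol red-free RPMI with 5% charcoal-stripped FBS were grown at least 3 days, then given compound as 7 half-log doses in 0.1% DMSO with 0.1 nM R1881 for 24 h. Lysates went into a sandwich AR ELISA with TMB read at 450 nm.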

[1] = read-out: VCaP DC50; concentration that caused 50% Androgen Receptor degradation, VCaP cells
[2] = VCaP, highest percentage of Androgen Receptor degradation observed, VCaP cells; read-out: VCaP Dmax (%)
[3] = concentration that caused 50% Androgen Receptor degradation, VCaP cells; read-out: VCaP DC50

| SMILES | Dmax (VCaP, read-out: VCaP Dmax (%)) [%] | DC50 [1] [µM] | Dmax [2] [%] | DC50 [3] [µM] |
| --- | --- | --- | --- | --- |
| CC(C)(C)[C@H](NC(=O)COCCCOCCCCOc1ccc(N2C(=S)N(c3ccc(C#N)c(Cl)c3)C(=O)C2(C)C)cc1F)C(=O)N1C[C@H](O)C[C@H]1C(=O)NCc1ccc(-c2cncs2)cc1 [Example 46, (2S,4R)-1-[(2S)-2-{2-[3-(4-{4-[3-(3-chloro-4-cyanophenyl)-5,5-dimethyl-4-oxo-2-sulfanylideneimidazolidin-1-yl]-2-fluorophenoxy}butoxy)propoxy]acetamido}-3,3-dimethylbutanoyl]-4-hydroxy-N-{[4-(1,3-thiazol-5-yl)phenyl]methyl}pyrrolidine-2-carboxamide] | > 71 | < 0.05 |  |  |
| CC(C)(C)[C@H](NC(=O)COCCCOCCCCOc1ccc(N2C(=S)N(c3cnc(C#N)c(C(F)(F)F)c3)C(=O)C2(C)C)cc1F)C(=O)N1C[C@H](O)C[C@H]1C(=O)NCc1ccc(-c2cnco2)cc1 [Example 47, (2S,4R)-1-[(2S)-2-(2-{3-[4-(4-{3-[6-cyano-5-(trifluoromethyl)pyridin-3-yl]-5,5-dimethyl-4-oxo-2-sulfanylideneimidazolidin-1-yl}-2-fluorophenoxy)butoxy]propoxy}acetamido)-3,3-dimethylbutanoyl]-4-hydroxy-N-{[4-(1,3-oxazol-5-yl)phenyl]methyl}pyrrolidine-2-carboxamide] |  |  | 51 to 70 | < 0.05 |
| Cc1ncsc1-c1ccc(CNC(=O)[C@@H]2C[C@@H](O)CN2C(=O)[C@@H](NC(=O)COCCCOCCCCOc2ccc(N3C(=S)N(c4cnc(C#N)c(C(F)(F)F)c4)C(=O)C3(C)C)cc2F)C(C)(C)C)cc1 [Example 48, (2S,4R)-1-[(2S)-2-(2-{3-[4-(4-{3-[6-cyano-5-(ttifluoromethyl)pyridin-3-yl]-5,5-dimethyl-4-oxo-2-sulfanylideneimidazolidin-1-yl}-2-fluorophenoxy)butoxy]propoxy}acetamido)-3,3-dimethylbutanoyl]-4-hydroxy-N-{[4-(4-methyl-1,3-thiazol-5-yl)phenyl]methyl}pyrrolidine-2-carboxamide] |  |  | 51 to 70 | < 0.05 |
| COc1cc(N2C(=O)C(C)(C)N(c3ccc(OCCCCOCCCOCC(=O)N[C@H](C(=O)N4C[C@H](O)C[C@H]4C(=O)NCc4ccc(-c5cnco5)cc4)C(C)(C)C)c(F)c3)C2=S)ccc1C#N [Example 49, (2S,4R)-1-[(2S)-2-{2-[3-(4-{4-[3-(4-cyano-3-methoxyphenyl)-5,5-dimethyl-4-oxo-2-sulfanylideneimidazolidin-1-yl]-2-fluorophenoxy}butoxy)propoxy]acetamido}-3,3-dimethylbutanoyl]-4-hydroxy-N-{[4-(1,3-oxazol-5-yl)phenyl]methyl}pyrrolidine-2-carboxamide] |  |  | 51 to 70 | < 0.05 |
| Cn1nccc1-c1ccc(CNC(=O)[C@@H]2C[C@@H](O)CN2C(=O)[C@@H](NC(=O)COCCCOCCCCOc2ccc(N3C(=S)N(c4ccc(C#N)c(Cl)c4)C(=O)C3(C)C)cc2F)C(C)(C)C)cc1 [Example 50, (2S,4R)-1-[(2S)-2-{2-[3-(4-{4-[3-(3-chloro-4-cyanophenyl)-5,5-dimethyl-4-oxo-2-sulfanylideneimidazolidin-1-yl]-2-fluorophenoxy}butoxy)propoxy]acetamido}-3,3-dimethylbutanoyl]-4-hydroxy-N-{[4-(1-methyl-1H-pyrazol-5-yl)phenyl]methyl}pyrrolidine-2-carboxamide] | > 71 | < 0.05 |  |  |
| Cc1ncsc1-c1ccc(CNC(=O)[C@@H]2C[C@@H](O)CN2C(=O)[C@@H](NC(=O)COCCCOCCCCOc2ccc(N3C(=S)N(c4ccc(C#N)c(C(F)(F)F)c4)C(=O)C34CCN(C)CC4)cc2)C(C)(C)C)cc1 [Example 51, (2S,4R)-1-[(2S)-2-(2-{3-[4-(4-{3-[4-cyano-3-(trifluoromethyl)phenyl]-8-methyl-4-oxo-2-sulfanylidene-1,3,8-triazaspiro[4.5]decan-1-yl}phenoxy)butoxy]propoxy}acetamido)-3,3-dimethylbutanoyl]-4-hydroxy-N-{[4-(4-methyl-1,3-thiazol-5-yl)phenyl]methyl}pyrrolidine-2-carboxamide] | 26 to 50 | < 0.05 |  |  |

— patent US11427548B2 (Arvinas Operations, Inc., priority 2015, dated 2022)
